Experimental data from patent US6429204B1, “Method of inhibiting cancer growth” (University of Miami, priority 1997, dated 2002).
Values after ≈ are worked out from the molar mass of the structure shown. Values joined by “and” are separate entries in the source; they are usually repeats but may differ in a detail not shown here. Equal entries are not always repeated. Where two headings read alike, the source gives them in different places. Marks after values point to notes of the source that are not given here.

Key:
[1] = test system: MMP-9 (gelatinase B) expressed by E-10 cells; experiment: MMP protein expression by Western blot of conditioned medium, E-10 cells; type: cell-based, human; conditions: 24 hr, serum-free medium
Method: Two human cancer-derived cell lines were obtained from the American Type Culture Collection (ATCC) in Rockville, Md. The cell lines included COLO 205, a human colon cancer-derived cell line that expresses MMP-2 or gelatinase A, and E-10, a human breast cancer-derived cell line that expresses MMP-9 or gelatinase B.
Cells of each cell line were cultured in 75 cm^2 T-flasks in RPMI-1640 (Gibco) with 10% heat-inactivated fetal bovine serum (FBS) containing 100 units/mL penicillin and 100 μg/mL streptomycin. The cells were fed every two days, and passaged every week. The cells were grown to 80-90% confluence, and then the FBS-containing medium was replaced with a serum-free medium (SFM). CMT-3 (CollaGenex Pharmaceuticals, Inc., Newtown, Pa.) was added in several concentrations to the cells in SFM. Conditioned medium was collected after 24 hr, centrifuged to remove cell debris, and then assayed for MMP protein expression by Western blot using a conventional technique, and scanning the blots with a laser densitometer.

[2] = test system: in vitro activated gelatinases (MMPs) from MAT LyLu and TSU PR1 conditioned medium; experiment: 3H-gelatin gelatinase activity assay on processed conditioned medium of prostate cancer cells; type: biochemical; conditions: for IC50: read-out: 50% inhibition dose (IC50), activated gelatinases
Method: The effects of CMT-3 and doxycycline on gelatinase activity or expression by prostate cancer cells were tested. First, we tested the capacity of CMT-3 and doxycycline to inhibit MMP secretion into culture medium. Gelatinase activity was measured using a method adapted from the method of Dean and Woessner (1985). Conditioned culture medium was collected from MAT LyLu and TSU PR1 cells treated with CMT-3 or doxycycline for two days. The serum-free culture medium comprised RPMI 1640 basal medium containing insulin (5 μg/mL), transferrin (5 μg/mL), selenious acid ([…]), and gentamicin (2 μg/mL). […] (Dean et al. 1987; Woessner 1991.) The dialyzed medium was assayed for gelatinase activity following activation of latent MMPs with 1 mM p-aminophenyl mercuric acetate (APMA) for 30 min at 37° C. The assay mix was 25 μg ^3H-gelatin (prepared from heat-denatured ^3H-acetylated acid-soluble collagen), 0.1 mL of processed culture-conditioned medium, 1 mM phenylmethyl sulfonyl fluoride (PMSF) in a total volume of 0.5 mL of an assay buffer (20 mM Tris-HCl, pH 7.4, 30 mM NaCl, 0.005% Brij35, 10 mM CaCl2, 2 μM ZnSO4, and 0.02% NaN3). In some cases, 1 mM CaCl2 (instead of 10 mM) was used. Blanks were obtained by adding 1 mM 1,10-phenanthroline. Doxycycline or CMT-3 were added to the assay mixture following activation of the latent MMPs and just before adding the substrate ^3H-gelatin.
MMP activity in the culture media was examined at 1 mM and 10 mM CaCl2, with no change in [Zn^2+] in the assay buffer. We employed 1 mM CaCl2, as this concentration is closer to physiological concentration, and 10 mM CaCl2, as it is reported to be the optimum concentration in in vitro assays (Woessner 1991). As is shown in Table 2, both CMT-3 and doxycycline inhibited in vitro activated gelatinases.

[3] = test system: DU-145 and TSU-PR1 prostate cancer cell lines; experiment: Prostate cancer cell viability/proliferation (trypan blue, MTT); type: cell-based, human; conditions: Homo sapiens; 48 hr exposure; read-out: 50% inhibition dose (IC50), cell proliferation
Source text: To determine the cytotoxicity of CMTs on prostate tumor cell lines, TSU-PR1 cells (and cells of other tumor cell lines) were exposed to various CMTs or to doxycycline for 24 hr or 48 hr in a complete medium. Cell viability (percent of live cells) was estimated by counting the cells following trypan blue staining. Cellular viability was also estimated by the tetrazolium dye reduction assay (MTT assay) (Lokeshwar et al. 1995b). Due to the aggressive proliferative capacity of cancer cells, it is assumed that viable cells are actively proliferating. Therefore, the measurement of viability was used as an estimate of proliferation. Results are expressed as Mean±SEM from three separate experiments.

LNCAP cells = experiment: Alamar Blue viability assay, LNCAP; type: cell-based, human
Source text: Several cancer cell lines and normal cells were examined in vitro to determine whether tetracycline compounds produce cytotoxic (cell killing) effects. A conventional assay for viability of cultured cells based on redox activity in the cells was employed (Pagé et al. 1993). The assay uses a redox dye Alamar Blue, which is a fluorogenic indicator dye that is converted to a fluorescent red product only when cells are carrying out electron transport activity, a widely accepted criterion of viability.
Cultured cells from three prostate tumor cell lines, LNCAP, DU-145, and PC-3, and normal prostate stromal cells obtained by biopsy of a normal person, were allowed to grow to confluence in multiwell microplates to minimize differences in proliferative activity among the cell types at the time of exposure to the test compound. CMT-3 was added to the wells at concentrations of 10 μM and 20 μM (50 μM also in the case of DU-145). At the start of the experiment, and again at 1, 2, and 3 days, selected wells were incubated with the indicator dye for 3 hr, and the fluorescence was measured on a Cytofluor 2300 fluorescent microplate reader.

MAT LyLu cells = experiment: Soluble nucleosome ELISA (programmed cell death), MAT LyLu; type: cell-based, rat
Method: An investigation of the cytotoxicity of chemically modified tetracycline compounds for cancer cells was undertaken to determine involvement of programmed cell death (apoptosis) (see Duke et al. 1986). MAT LyLu cells were incubated with various concentration of CMT-3 and doxycycline. Conditioned media were assayed for soluble nucleosomes, resulting from internucleosomal DNA strand breaks, using the Cell Death Detection ELISA Plus kit from Boehringer Mannheim GmbH (Catalog No. 1774425) according to the manufacturer's instructions. In the dosage-dependence trials, cells were incubated with the tetracycline compounds for 48 hr, and then media were collected. In the time trials, the cells were exposed to the tetracycline compounds for specific periods of time from 0 to 48 hr, and if appropriate were maintained in fresh media until 48 hr from the start of the experiment at which time media were collected.

prostate cancer cells = experiment: Invasive potential of prostate cancer cells in vitro (summary); type: cell-based; conditions: 5 μg/mL
E-10 Cells = experiment: MTS cytotoxicity assay, E-10; conditions: two days
Method: A panel of chemically modified tetracycline compounds and doxycycline were tested for cytotoxicity against two carcinomas: COLO 205 (a human colon carcinoma-derived cell line) and the E-10 clone of MDA-MB-231 (a human breast carcinoma-derived cell line). Cytoxicity was measured using a conventional assay for viability with a tetrazolium salt (MTS). Cells were grown in media containing the CMTs at concentrations ranging from 5 μM to 100 μM for two days. The cells were then incubated with the MTS for several hours before removal of the supernatant medium for determination of formazan, which is generated only by the viable cells. Results are expressed as percent cytotoxicity, which is simply the percent decline in measured formazan concentration in the sampled medium.

## NC(=O)C1=C(O)CC2CC3Cc4cccc(O)c4C(=O)C3=C(O)C2(O)C1=O (stereo not drawn) [CMT-3, 6-demethyl-6-deoxy-4-de(dimethylamino)tetracycline]
[1]; E-10, MMP-9, 10 μM
  Percent Inhibition of MMP Protein Expression: 45.3%
[1]; E-10, MMP-9, 20 μM
  Percent Inhibition of MMP Protein Expression: 60.8%
[2]; 0.25 μM drug, 10 mM CaCl2
  Percent Inhibition (gelatinase activity): 31.5 ± 1.2%
[2]; 0.50 μM drug, 1 mM CaCl2
  Percent Inhibition (gelatinase activity): 84.8 ± 10.1%
[2]; 0.50 μM drug, 10 mM CaCl2
  Percent Inhibition (gelatinase activity): 37.8 ± 7.5^b %
[2]; 1.0 μM drug, 1 mM CaCl2
  Percent Inhibition (gelatinase activity): 96.7 ± 4.6^a %
[2]; 1.0 μM drug, 10 mM CaCl2
  Percent Inhibition (gelatinase activity): 45.1 ± 2.9%
[2]; 2.0 μM drug, 10 mM CaCl2
  Percent Inhibition (gelatinase activity): 51.2 ± 2.6%
[2]; 5.0 μM drug, 1 mM CaCl2
  Percent Inhibition (gelatinase activity): 97.2 ± 2.9%
[2]; 5.0 μM drug, 10 mM CaCl2
  Percent Inhibition (gelatinase activity): 52.4 ± 3.5%
[2]; 10 μM drug, 1 mM CaCl2
  Percent Inhibition (gelatinase activity): 100%
[2]; 10 μM drug, 10 mM CaCl2
  Percent Inhibition (gelatinase activity): 69.9 ± 10.5%
[2]; 20 μM drug, 10 mM CaCl2
  Percent Inhibition (gelatinase activity): 78.9 ± 11.4%
[2]; 50 μM drug, 10 mM CaCl2
  Percent Inhibition (gelatinase activity): 94.2 ± 3.3%
[2]; 1 mM CaCl2
  IC50: 0.5 µM
[2]; 10 mM CaCl2
  IC50: ~1.5 µM
[3]
  IC50: 2.7 µg/mL (≈ 7.27 µM)
LNCAP cells; 10 μM, 24 hr
  cytotoxicity: nearly complete
LNCAP cells; 20 μM
  time to complete cytotoxicity: ≤ 24 h
MAT LyLu cells; 4 hr at 5 μg/mL or 10 μg/mL
  programmed cell death response after brief exposure: sufficient to elicit a putative programmed cell death response
MAT LyLu cells; dosage-dependence, 48 hr
  soluble nucleosomes / programmed cell death induction: dose-dependent increase in soluble nucleosomes
Prostate cancer cells
  inhibition at 5 µg/mL: 90%
E-10 Cells; 10 μM
  percent cytotoxicity: 1.8%
E-10 Cells; 20 μM
  percent cytotoxicity: 4.15% and 8.5%
